Test results as given in paper PMC9099127 (Clinical and Translational Science, 2022).
Read-outs that look alike come from different tables or passages of the source.

Assays:
[1] = after a 40 mg oral dose; range associated with therapeutic response; cited from earlier work
[2] = assay type: in vivo, human (children 6–17 years); conditions: single oral dose 1.2 mg/kg LBW

**Q.** What does the source list for COc1ccnc(C[S+]([O-])c2nc3ccc(OC(F)F)cc3[nH]2)c1OC (centres unmarked) [PAN, pantoprazole]?
**A.** typical therapeutic PAN plasma AUCtot [1]: 7 to 17 µM; PAN plasma AUCtot, Mean (SD) ([2]; CYP2C19 genotype *1*1 (n=30)): 10.04 (6.81) µM per mg/kg TBW; PAN plasma AUCtot, Range ([2]; CYP2C19 genotype *1*1 (n=30)): [2.68–33.75] µM per mg/kg TBW; PAN plasma AUCtot, Mean (SD) ([2]; CYP2C19 genotype *1*2 (n=10)): 18.07 (11.20) µM per mg/kg TBW; PAN plasma AUCtot, Range ([2]; CYP2C19 genotype *1*2 (n=10)): [7.36–41.31] µM per mg/kg TBW; PAN plasma AUCtot, Mean (SD) ([2]; CYP2C19 genotype *1*17 (n=16)): 7.84 (4.52) µM per mg/kg TBW; PAN plasma AUCtot, Range ([2]; CYP2C19 genotype *1*17 (n=16)): [2.26–18.59] µM per mg/kg TBW; PAN plasma AUCtot, Mean (SD) ([2]; CYP2C19 genotype *2*2 (n=1)): 226.59 (–) µM per mg/kg TBW; PAN plasma AUCtot, Mean (SD) ([2]; CYP2C19 genotype *2*17 (n=3)): 10.42 (3.40) µM per mg/kg TBW; PAN plasma AUCtot, Range ([2]; CYP2C19 genotype *2*17 (n=3)): [7.71–14.23] µM per mg/kg TBW; PAN plasma AUCtot, Mean (SD) ([2]; CYP2C19 genotype *17*17 (n=1)): 4.18 (–) µM per mg/kg TBW
